Results as given in ChEMBL document CHEMBL1151385, “Antineoplastic Agents 78. Isolation of Palystatins 1-3 From the Indian Ocean Palythoa liscia” (J Nat Prod, 1982).

How the values were obtained:
Ehrlich = experiment: In vivo cytotoxicity against mouse EAC cells; format: functional, organism-based
P388 = experiment: In vivo cytotoxicity against mouse P388 cells assessed as life extension at 0.1 ug/kg; format: functional, organism-based

Question: With `C=C(/C=C\C[C@@H](O)[C@@H](O)[C@H](O)C/C=C/C=C\[C@@H](O)C[C@@H]1O[C@H](C[C@@H](O)[C@H](O)C[C@H]2O[C@H]([C@H](O)[C@H](O)CC[C@H](O)/C=C/[C@H](C)[C@@H](O)C[C@]3(O)O[C@H](C[C@@H](O)CCCCCCC[C@@]45C[C@@H](C)C[C@@](C)(O4)[C@@H](C[C@@H](C)CCCCC[C@@H](O)[C@H](O)[C@H](O)[C@@H](O)[C@H](O)[C@H]4O[C@H](C[C@H](O)[C@H](O)/C(C)=C/[C@H](O)C[C@@H](C)[C@H](O)C(=O)N/C=C/C(=O)NCCCO)[C@H](O)[C@@H](O)[C@@H]4O)O5)[C@H](O)[C@@H](O)[C@H]3O)C[C@@H](O)[C@@H]2O)[C@@H](O)[C@H](O)[C@H]1O)CC[C@H](O)[C@@H](O)[C@H](O)[C@H](C)C[C@H]1O[C@H](/C=C\[C@@H](O)CC[C@@H]2C[C@@H]3C[C@H](O2)[C@@H](CC[C@H]2O[C@H](CN)C[C@H]2O)O3)[C@@H](O)[C@H](O)[C@H]1O` as the molecule, how does the Activity (Ehrlich) read?
Answer: The Activity was 0.34 µg/kg.

Question: What about the Activity (P388) of the same molecule?
Answer: The Activity was 32%.
